Data: patent US9732094B2, “Arylquinazolines” (Merck Patent GmbH, priority 2013, dated 2017)
Like-named read-outs stand apart in the source and are kept apart here.

Legend:
[1] = target: Kv11.1 (hERG) (Homo sapiens (Human), UniProt Q12809); assay: Kv11.1 (hERG) ion channel activity (patch clamp assay), HEK293 cells transfected with hERG gene
[2] = target: DNA-PK (Homo sapiens (Human), UniProt P78527); assay: DNA-PK assay (biochemical), flashplate 33P-ATP kinase assay
Method in brief: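 Reactions ran in streptavidin-coated flashplates and were halted by 200 mM EDTA, with a further 30 min at room temperature before saline washing.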

[3] = target: DNA-PK phosphorylation at serine 2056 (Homo sapiens (Human), UniProt P78527); assay: DNA-PK phosphorylation at serine 2056 (cellular), bleomycin-treated HCT116 cells, ELISA; format: cell-based; details: read-out: IC50 pDNA-PK
Method in brief: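 Chemiluminescent ELISA quantified DNA-PK Ser2056 phosphorylation relative to total DNA-PKcs in HCT116 cells. Cells received compounds together with 10 μM bleomycin for 6 h; DMSO served as blank.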

[4] = read-out: Ki [Kv1.11 hERG], hERG patch clamp assay (cells without asterisk)
[5] = cellular DNA-PK phosphorylation at serine 2056, HCT116
[6] = read-out: Ki [Kv1.11 hERG], patch clamp, HEK293 transfected with hERG gene
[7] = cellular, HCT116 cells, 10 μM bleomycin, six hours
[8] = Ki [Kv1.11 hERG], hERG patch clamp assay (cells without asterisk)
[9] = read-out: Ki [Kv1.11 hERG], Table 5
[10] = Ki [Kv1.11 hERG], patch clamp, HEK293 transfected with hERG gene

Chain of Kv11.1 (hERG) (Q12809 whole entry): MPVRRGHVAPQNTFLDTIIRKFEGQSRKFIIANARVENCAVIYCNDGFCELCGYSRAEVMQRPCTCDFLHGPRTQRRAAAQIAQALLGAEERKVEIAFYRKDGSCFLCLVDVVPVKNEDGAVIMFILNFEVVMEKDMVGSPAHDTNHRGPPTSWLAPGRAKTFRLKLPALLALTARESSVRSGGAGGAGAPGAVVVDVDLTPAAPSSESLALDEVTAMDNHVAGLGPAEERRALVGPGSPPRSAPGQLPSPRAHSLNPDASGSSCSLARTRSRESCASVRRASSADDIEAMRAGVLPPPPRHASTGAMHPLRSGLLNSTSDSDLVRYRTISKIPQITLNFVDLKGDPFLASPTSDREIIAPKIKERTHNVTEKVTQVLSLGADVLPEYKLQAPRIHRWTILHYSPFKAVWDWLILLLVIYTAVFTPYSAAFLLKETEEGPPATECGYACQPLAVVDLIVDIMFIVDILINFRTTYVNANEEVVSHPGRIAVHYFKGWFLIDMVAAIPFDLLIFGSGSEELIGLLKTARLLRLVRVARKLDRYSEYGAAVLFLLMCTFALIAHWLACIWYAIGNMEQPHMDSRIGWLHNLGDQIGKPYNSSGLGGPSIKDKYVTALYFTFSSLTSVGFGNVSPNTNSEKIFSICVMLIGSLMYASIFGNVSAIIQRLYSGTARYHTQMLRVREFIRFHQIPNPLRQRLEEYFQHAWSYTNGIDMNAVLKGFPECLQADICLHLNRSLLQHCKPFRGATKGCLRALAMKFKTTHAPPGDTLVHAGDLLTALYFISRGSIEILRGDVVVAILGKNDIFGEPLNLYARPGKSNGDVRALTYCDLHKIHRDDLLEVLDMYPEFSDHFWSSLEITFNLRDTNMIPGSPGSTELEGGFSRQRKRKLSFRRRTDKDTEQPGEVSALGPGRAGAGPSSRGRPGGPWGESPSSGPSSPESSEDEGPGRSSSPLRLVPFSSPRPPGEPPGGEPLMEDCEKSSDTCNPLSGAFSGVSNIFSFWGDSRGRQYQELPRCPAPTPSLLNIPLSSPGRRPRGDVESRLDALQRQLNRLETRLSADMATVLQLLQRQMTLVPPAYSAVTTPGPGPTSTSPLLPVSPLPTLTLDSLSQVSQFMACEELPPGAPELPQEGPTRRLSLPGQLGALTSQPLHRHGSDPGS

| IC50 ([2]; biochemical DNA-PK assay) | IC50 [3, 5] | IC50 ([2]; enzymatic, 5 μM ATP) | IC50 [3, 7] | Compound | Ki [1, 4] | further results |
| --- | --- | --- | --- | --- | --- | --- |
| > 0.03 µM | 10 to 30 µM | – | – | Cn1nc(C(C(N)=O)c2cc(-c3ncnc4cc(N5CCOCC5)ccc34)c(F)cc2Cl)ccc1=O (stereo not drawn) [Example 311, 2-[2-Chloro-4-fluoro-5-(7-morpholin-4-yl-quinazolin-4-yl)-phenyl]-2-(1-methyl-6-oxo-1,6-dihydro-pyridazin-3-yl)-acetamide] | > 25 µM | – |
| 0.003 to 0.007 µM | 5 to 10 µM | – | – | NC(=O)C(c1cccnc1)c1cc(-c2ncnc3cc(N4CCOCC4)ccc23)c(F)cc1Cl (stereo not drawn) [Example 293, 2-[2-Chloro-4-fiuoro-5-(7-morpholin-4-yl-quinazolin-4-yl)-phenyl]-2-pyridin-3-ylacetamide] | > 25 µM | – |
| – | – | 0.007 to 0.03 µM | 10 to 30 µM | OCCOc1nccnc1C(O)c1ccc(F)c(-c2ncnc3cc(N4CCOCC4)ccc23)c1 (stereo not drawn) [Example 105, 2-(3-{[4-fluoro-3-(7-morpholin-4-yl-quinazolin-4-yl)-phenyl]hydroxy-methyl}pyrazin-2-yl-oxy)ethanol] | – | Ki [1, 6]: > 25 µM |
| 0.007 to 0.03 µM | 10 to 30 µM | – | – | Cc1nccnc1[C@@H](O)c1ccc(F)c(-c2ncnc3cc(N4CCOCC4)cnc23)c1 [Example 233, (S)-[4-Fluoro-3-(7-morpholin-4-yl-pyrido[3,2-d}-pyrimidin-4-yl)-phenyl]-(3-methyl-pyrazin-2-yl)-methanol] | > 25 µM | – |
| > 0.03 µM | 10 to 30 µM | – | – | Cc1cc(C(C(N)=O)c2cc(-c3ncnc4cc(N5CCOCC5)ccc34)c(F)cc2Cl)n(C)c(=O)c1 (stereo not drawn) [Example 334, 2-[2-Chloro-4-fluoro-5-(7-morpholin-4-yl-quinazolin-4-yl)-phenyl]-2-(1,4-dimethyl-6-oxo-1,6-dihydropyridin-2-yl)-acetamide] | > 25 µM | – |
| < 0.003 µM | < 0.5 µM | – | – | OC(c1cc(-c2ncnc3cc(N4CCOCC4)ccc23)c(F)cc1F)c1nccn2cccc12 (stereo not drawn) [Example 358, [2,4-Difluoro-5-(7-morpholin-4-yl-quinazolin-4-yl)-phenyl]pyrrolo[1,2-a]-pyrazin-1-ylmethanol] | – | Ki [1, 8]: 10 to 15 µM |
| 0.007 to 0.03 µM | 5 to 10 µM | – | – | Cn1cnc2c(C(O)c3ccc(F)c(-c4ncnc5cc(N6CCOCC6)ccc45)c3)ncnc21 (stereo not drawn) [Example 420, [4-Fluoro-3-(7-morpholin-4-yl-quinazolin-4-yl)-phenyl]-(9-methyl-9H-purin-6-yl)-methanol] | > 25 µM | – |
| > 0.03 µM | 10 to 30 µM | – | – | NC(=O)C(c1cc(-c2ncnc3cc(N4CCOCC4)ccc23)ccc1Cl)c1nccnc1Cl (stereo not drawn) [Example 315, 2-[2-Chloro-5-(7-morpholin-4-yl-quinazolin-4-yl)-phenyl]-2-(3-chloro-pyrazin-2-yl)-acetamide] | – | Ki [1, 8]: 10 to 15 µM |
| 0.007 to 0.03 µM | 0.5 to 5 µM | – | – | COc1nccnc1C(O)c1cc(-c2ncnc3cc(N4CCOCC4)cnc23)c(F)cc1Cl (stereo not drawn) [Example 231, [2-Chloro-4-fluoro-5-(7-morpholin-4-yl-pyrido[3,2-d}-pyrimidin-4-yl)-phenyl]-(3-methoxy-pyrazin-2-yl)-methanol] | > 25 µM | – |
| – | – | – | – | Cc1nc(C(O)c2ccc(F)c(-c3ncnc4cc(N5CCOCC5)ccc34)c2)sc1CO (stereo not drawn) [Example 200, [4-Fluoro-3-(7-morpholin-4-yl-quinazolin-4-yl)-phenyl]-(5-hydroxy-methyl-4-methyl-thiazol-2-yl)-methanol] | – | Ki [1, 9]: > 25 µM; IC50 ([2]; Table 5): 0.003 to 0.007 µM; IC50 ([3]; Table 5, HCT116 cells): 5 to 10 µM |
| 0.007 to 0.03 µM | 10 to 30 µM | – | – | Cn1cnc2c(C(O)c3cc(-c4ncnc5cc(N6CCOCC6)ccc45)c(F)cc3F)ncnc21 (stereo not drawn) [Example 346, [2,4-Difluoro-5-(7-morpholin-4-yl-quinazolin-4-yl)-phenyl]-(9-methyl-9H-purin-6-yl)-methanol] | – | Ki [1, 8]: 15 to 25 µM |
| < 0.003 µM | < 0.5 µM | – | – | Cc1cnc(C(O)c2ccc(F)c(-c3ncnc4cc(N5CCOCC5)ccc34)c2)c(C)n1 (stereo not drawn) [Example 354, (3,5-Dimethyl-pyrazin-2-yl)-[4-fluoro-3-(7-morpholin-4-yl-quinazolin-4-yl)-phenyl]methanol] | > 25 µM | – |
| – | – | 0.003 to 0.007 µM | 0.5 to 5 µM | Cc1ccc(C(O)c2ccc(F)c(-c3ncnc4cc(N5CCOCC5)ccc34)c2)nn1 (stereo not drawn) [Example 70, [4-Fluoro-3-(7-morpholin-4-yl-quinazolin-4-yl)phenyl]-(6-methylpyridazin-3-yl)methanol] | – | Ki [1, 6]: > 25 µM |
| 0.007 to 0.03 µM | 0.5 to 5 µM | – | – | Cc1nccnc1C(O)c1cc(-c2ncnc3cc(N4CCOCC4)ccc23)ccc1Cl (stereo not drawn) [Example 427, [2-Chloro-5-(7-morpholin-4-yl-quinazolin-4-yl)-phenyl]-(3-methyl-pyrazin-2-yl)-methanol] | – | Ki [1, 8]: 15 to 25 µM |
| – | – | 0.003 to 0.007 µM | < 0.5 µM | OC(c1ccc(F)c(-c2ncnc3cc(N4CCOCC4)ccc23)c1)c1c(F)cncc1Cl (stereo not drawn) [Example 77, (3-Chloro-5-fluoro-pyridin-4-yl)-[4-fluoro-3-(7-morpholin-4-yl-quinazolin-4-yl)phenyl]-methanol] | – | Ki [1, 10]: 10 to 15 µM |
| – | – | < 0.003 µM | < 0.5 µM | Cn1nc(C(O)c2cc(-c3ncnc4cc(N5CCOCC5)ccc34)c(F)cc2Cl)ccc1=O (single isomer, unassigned) [Example 45, 6-{[2-Chloro-4-fluoro-5-(7-morpholin-4-yl-quinazolin-4-yl)phenyl]-hydroxymethyl}-2-methyl-2H-pyridazin-3-one] | – | Ki [1, 6]: 15 to 25 µM |
| 0.003 to 0.007 µM | 0.5 to 5 µM | – | – | COc1cncnc1C(O)c1cc(-c2ncnc3cc(N4CCOCC4)ccc23)ccc1Cl (stereo not drawn) [Example 408, [2-Chloro-5-(7-morpholin-4-yl-quinazolin-4-yl)-phenyl]-(5-methoxy-pyrimidin-4-yl)-methanol] | – | Ki [1, 8]: 10 to 15 µM |
| – | – | 0.003 to 0.007 µM | < 0.5 µM | COc1cc(C(O)c2ccc(F)c(-c3ncnc4cc(N5CCOCC5)ccc34)c2)c(Cl)nn1 (stereo not drawn) [Example 7, (3-Chloro-6-methoxy-pyridazin-4-yl)-[4-fluoro-3-(7-morpholin-4-yl-quinazolin-4-yl)phenyl]-methanol] | – | Ki [1, 10]: 15 to 25 µM |
| – | – | 0.003 to 0.007 µM | < 0.5 µM | OC(c1cc(-c2ncnc3cc(N4CCOCC4)ccc23)c(F)cc1Cl)c1nccnc1Cl (stereo not drawn) [Example 64, [2-Chloro-4-fluoro-5-(7-morpholin-4-yl-quinazolin-4-yl)phenyl]-(3-chloropyrazin-2-yl)-methanol] | – | Ki [1, 10]: 10 to 15 µM |
| 0.003 to 0.007 µM | 0.5 to 5 µM | – | – | COc1nccnc1C(O)c1cc(-c2ncnc3cc(N4CCOCC4)ccc23)ccc1F (stereo not drawn) [Example 394, [2-Fluoro-5-(7-morpholin-4-yl-quinazolin-4-yl)-phenyl]-(3-methoxy-pyrazin-2-yl)-methanol] | < 10 µM | – |
| 0.003 to 0.007 µM | < 0.5 µM | – | – | OC(c1cc(-c2ncnc3cc(N4CCOCC4)ccc23)ccc1Cl)c1ncnc2sccc12 (stereo not drawn) [Example 430, [2-Chloro-5-(7-morpholin-4-yl-quinazolin-4-yl)-phenyl]thieno[2,3-d}-pyrimidin-4-yl-methanol] | > 25 µM | – |
| < 0.003 µM | < 0.5 µM | – | – | OC(c1cc(-c2ncnc3cc(N4CCOCC4)ccc23)c(F)cc1Cl)c1ncnc2sccc12 (stereo not drawn) [Example 429, [2-Chloro-4-fluoro-5-(7-morpholin-4-yl-quinazolin-4-yl)-phenyl]thieno[2,3-d}-pyrimidin-4-yl-methanol] | < 10 µM | – |
| – | – | – | – | COc1ccc(C(O)c2cc(-c3ncnc4cc(N5CCOCC5)ccc34)c(F)cc2F)cn1 (stereo not drawn) [Example 221, [2,4-Difluoro-5-(7-morpholin-4-yl-quinazolin-4-yl)-phenyl]-(6-methoxy-pyridin-3-yl)methanol] | – | Ki ([1]; Ki [Kv1.11 hERG], Table 7): 15 to 25 µM; IC50 ([2]; Table 7): 0.003 to 0.007 µM; IC50 ([3]; Table 7, HCT116 cells): 0.5 to 5 µM |
| 0.007 to 0.03 µM | 0.5 to 5 µM | – | – | Cc1cncnc1C(O)c1cc(-c2ncnc3cc(N4CCOCC4)ccc23)ccc1Cl (stereo not drawn) [Example 417, [2-Chloro-5-(7-morpholin-4-yl-quinazolin-4-yl)-phenyl]-(5-methyl-pyrimidin-4-yl)-methanol] | – | Ki [1, 8]: 15 to 25 µM |
| – | – | 0.003 to 0.007 µM | < 0.5 µM | OC(c1cccnn1)c1cc(-c2ncnc3cc(N4CCOCC4)ccc23)c(F)cc1Cl (stereo not drawn) [Example 47, [2-Chloro-4-fluoro-5-(7-morpholin-4-yl-quinazolin-4-yl)phenyl]-pyridazin-3-ylmethanol] | – | Ki [1, 6]: > 25 µM |
| – | – | < 0.003 µM | < 0.5 µM | OC(c1ccc2nccn2n1)c1cc(-c2ncnc3cc(N4CCOCC4)ccc23)c(F)cc1F (stereo not drawn) [Example 51, [2,4-Difluoro-5-(7-morpholin-4-yl-quinazolin-4-yl)phenyl]-imidazo[1,2-b]pyridazin-6-ylmethanol] | – | Ki [1, 10]: 15 to 25 µM |
| – | – | < 0.003 µM | 0.5 to 5 µM | Cc1cc(F)c(-c2ncnc3cc(N4CCOCC4)ccc23)cc1C(O)c1nccs1 (stereo not drawn) [Example 207, [4-Fluoro-2-methyl-5-(7-morpholinylquinazolin-4-yl)phenyl]thiazol-2-ylmethanol] | – | Ki [1, 10]: 15 to 25 µM |
| – | – | – | – | OCc1csc(C(O)c2cc(-c3ncnc4cc(N5CCOCC5)ccc34)c(F)cc2Cl)n1 (stereo not drawn) [Example 142, [2-Chloro-4-fluoro-5-(7-morpholin-4-yl-quinazolin-4-yl)-phenyl]-(4-hydroxymethyl-thiazol-2-yl)-methanol] | – | Ki [1, 9]: < 10 µM; IC50 ([2]; Table 5): < 0.003 µM; IC50 ([3]; Table 5, HCT116 cells): 0.5 to 5 µM |
